Measurements: patent US8791107B2, “N-substituted oxazinopteridines and oxazinopteridinones” (Takeda Pharmaceutical Company Limited, priority 2011, dated 2014)

Biological target: T1, PI3Kδ (Homo sapiens, UniProt O00329)
T1 construct: The protein is full length and co-expressed with untagged PIK3R1; GST; purchased Invitrogen PV5274
Assay: PI3Kδ inhibition, modified PIK3CD Adapta TR-FRET assay
Type: biochemical
Details: recombinant GST-tagged full length PIK3CD co-expressed with PIK3R1 (p85α); 2 μM ATP, 50 μM PIP2; read-out: PI3Kδ Inhibition (pIC50) (converted)
Method: The activity of compounds as PI3Kδ inhibitors may be determined by a variety of methods, including in vitro and in vivo methods. The following in vitro assay measures a test compound's ability to inhibit PI3Kδ-mediated phosphorylation of PIP2 and ATP.
Recombinant GST-tagged PIK3CD is purchased from Invitrogen (Part Number: PV5274). The protein is full length and co-expressed with untagged PIK3R1, phosphoinositide-3-kinase regulatory subunit 1 (p85α). The protein is stored at −20° C. in 50 mM TRIS (pH 7.5), 150 mM NaCl, 0.5 mM EDTA, 0.02% Triton® X-100, 2 mM DTT, and 50% glycerol.
A modified PIK3CD Adapta® assay (Invitrogen, Carlsbad, Calif.) is used to measure PI3Kδ inhibition of the example compounds. The assay has two phases. In the first phase, kinase reaction components, which include the enzyme (PIK3CD), substrates (PIP2, ATP), test compound (inhibitor), and assay buffer are added to each well, and the reaction is allowed to incubate for a pre-determined period of time. […] In the presence of the inhibitor, the amount of ADP formed by the kinase reaction is reduced, and the resulting intact antibody-tracer interaction maintains a high TR-FRET signal.
The reaction buffer contains 50 mM Hepes (pH 7.5), 3 mM MgCl2, 1 mM EGTA, 100 mM NaCl, 0.03% CHAPS; 2 mM DTT is added fresh prior to each experiment. […] Next, test compounds (2 μL) from a source plate (5% dilution plate) are introduced into the wells. The final DMSO concentration in each assay well is 1%. […] Other wells contain test compounds serially diluted across the plate 11 times for a total of 12 data points. The kinase reactions are carried out at room temperature and are initiated by the addition of 4 μL of solution containing 2 μM ATP and 50 μM PIP2. […] This emission signal is referenced or “ratioed” to the emission from Eu at 620 nm. […] The percent inhibition for a given inhibitor concentration is computed from % conversion for the reaction and for the positive and negative controls.

T1 sequence (O00329 whole entry): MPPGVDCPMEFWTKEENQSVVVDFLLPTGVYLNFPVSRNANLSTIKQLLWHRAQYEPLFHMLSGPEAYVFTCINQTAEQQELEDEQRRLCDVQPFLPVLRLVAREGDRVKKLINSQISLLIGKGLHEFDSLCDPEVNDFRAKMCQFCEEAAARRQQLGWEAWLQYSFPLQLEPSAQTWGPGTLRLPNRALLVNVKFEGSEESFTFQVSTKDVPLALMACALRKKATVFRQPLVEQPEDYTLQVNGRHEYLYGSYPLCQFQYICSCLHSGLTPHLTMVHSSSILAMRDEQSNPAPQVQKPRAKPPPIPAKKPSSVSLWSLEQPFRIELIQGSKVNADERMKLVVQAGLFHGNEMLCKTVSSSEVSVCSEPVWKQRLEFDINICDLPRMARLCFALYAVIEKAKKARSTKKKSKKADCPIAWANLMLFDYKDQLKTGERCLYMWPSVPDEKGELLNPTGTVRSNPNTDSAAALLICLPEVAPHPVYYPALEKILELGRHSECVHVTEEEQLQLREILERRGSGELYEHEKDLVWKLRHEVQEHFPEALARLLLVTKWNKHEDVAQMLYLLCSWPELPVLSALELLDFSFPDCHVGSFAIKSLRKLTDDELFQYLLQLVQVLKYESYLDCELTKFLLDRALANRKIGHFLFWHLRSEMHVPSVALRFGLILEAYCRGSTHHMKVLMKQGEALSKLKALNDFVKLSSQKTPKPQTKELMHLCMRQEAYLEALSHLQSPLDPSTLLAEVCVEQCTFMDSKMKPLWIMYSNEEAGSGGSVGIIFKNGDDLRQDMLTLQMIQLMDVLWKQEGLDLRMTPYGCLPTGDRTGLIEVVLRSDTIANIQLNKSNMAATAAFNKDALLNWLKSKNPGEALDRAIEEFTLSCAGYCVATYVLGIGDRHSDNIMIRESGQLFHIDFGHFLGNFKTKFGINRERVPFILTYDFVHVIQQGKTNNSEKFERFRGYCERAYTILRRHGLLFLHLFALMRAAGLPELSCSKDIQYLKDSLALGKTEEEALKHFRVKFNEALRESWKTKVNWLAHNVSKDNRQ
T1 sequence (P27986 whole entry partner): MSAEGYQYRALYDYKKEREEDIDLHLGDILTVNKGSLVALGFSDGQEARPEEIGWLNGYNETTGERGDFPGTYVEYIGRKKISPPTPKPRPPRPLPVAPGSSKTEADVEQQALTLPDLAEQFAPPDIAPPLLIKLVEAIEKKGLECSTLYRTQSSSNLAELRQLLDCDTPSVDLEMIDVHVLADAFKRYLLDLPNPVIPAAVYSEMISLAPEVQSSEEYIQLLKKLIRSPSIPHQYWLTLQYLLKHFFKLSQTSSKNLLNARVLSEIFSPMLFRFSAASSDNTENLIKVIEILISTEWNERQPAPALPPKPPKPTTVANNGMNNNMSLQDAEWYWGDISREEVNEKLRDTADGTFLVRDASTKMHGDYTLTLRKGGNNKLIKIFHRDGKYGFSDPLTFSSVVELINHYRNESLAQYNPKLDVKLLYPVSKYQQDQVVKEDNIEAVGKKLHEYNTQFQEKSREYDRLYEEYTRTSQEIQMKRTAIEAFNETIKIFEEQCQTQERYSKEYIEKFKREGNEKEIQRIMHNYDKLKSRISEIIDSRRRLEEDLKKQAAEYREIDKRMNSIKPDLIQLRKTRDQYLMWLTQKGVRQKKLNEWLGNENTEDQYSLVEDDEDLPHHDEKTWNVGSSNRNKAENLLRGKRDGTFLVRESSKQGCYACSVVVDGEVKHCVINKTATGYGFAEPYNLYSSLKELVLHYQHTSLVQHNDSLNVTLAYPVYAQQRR

| SMILES | IC50 |
| --- | --- |
| O=C(CCN1CC2COCCN2c2nc(-c3cccc4[nH]ccc34)ncc21)NCc1ccco1 (centres unmarked) [Example 34, 3-(2-(1H-indol-4-yl)-6a,7,9,10-tetrahydro-[1,4]oxazino[3,4-h]pteridin-5(6H)-yl)-N-(furan-2-ylmethyl)propanamide] | 12.6 nM |
| CCc1nnc(CN2CC3COCCN3c3nc(-c4cccc5[nH]ccc45)ncc32)o1 (centres unmarked) [Example 35, 5-((5-ethyl-1,3,4-oxadiazol-2-yl)methyl)-2-(1H-indol-4-yl)-5,6,6a,7,9,10-hexahydro-[1,4]oxazino[3,4-h]pteridine] | 10 nM |
| c1cc(-c2ncc3c(n2)N2CCOCC2CN3Cc2nnnn2C2CC2)c2cc[nH]c2c1 (centres unmarked) [Example 36, 5-((1-cyclopropyl-1H-tetrazol-5-yl)methyl)-2-(1H-indol-4-yl)-5,6,6a,7,9,10-hexahydro-[1,4]oxazino[3,4-h]pteridine] | 126 nM |
| c1ccc(-c2nc(CN3CC4COCCN4c4nc(-c5cccc6[nH]ccc56)ncc43)co2)cc1 (centres unmarked) [Example 37, 2-(1H-indol-4-yl)-5-((2-phenyloxazol-4-yl)methyl)-5,6,6a,7,9,10-hexahydro-[1,4]oxazino[3,4-h]pteridine] | 316 nM |
| c1ccc(-c2nnc(CN3CC4COCCN4c4nc(-c5cccc6[nH]ccc56)ncc43)o2)cc1 (centres unmarked) [Example 38, 2-(1H-indol-4-yl)-5-((5-phenyl-1,3,4-oxadiazol-2-yl)methyl)-5,6,6a,7,9,10-hexahydro-[1,4]oxazino[3,4-h]pteridine] | 12.6 nM |
| c1cc(-c2ncc3c(n2)N2CCOCC2CN3Cc2ncco2)c2cc[nH]c2c1 (centres unmarked) [Example 39, 2-(1H-indol-4-yl)-5-(oxazol-2-ylmethyl)-5,6,6a,7,9,10-hexahydro-[1,4]oxazino[3,4-h]pteridine] | 20 nM |
| c1ccc(-n2cc(CN3CC4COCCN4c4nc(-c5cccc6[nH]ccc56)ncc43)nn2)cc1 (centres unmarked) [Example 40] | 15.8 nM |
| Cc1ccccc1CNC(=O)CN1CC2COCCN2c2nc(-c3cccc4[nH]ccc34)ncc21 (centres unmarked) [Example 41, 2-(2-(1H-indol-4-yl)-6a,7,9,10-tetrahydro-[1,4]oxazino[3,4-h]pteridin-5(6H)-yl)-N-(2-methylbenzyl)acetamide] | 31.6 nM |
| CC(C)NC(=O)CN1CC2COCCN2c2nc(-c3cccc4[nH]ccc34)ncc21 (centres unmarked) [Example 42, 2-(2-(1H-indol-4-yl)-6a,7,9,10-tetrahydro-[1,4]oxazino[3,4-h]pteridin-5(6H)-yl)-N-isopropylacetamide] | 501 nM |
| CN(C)C(=O)CN1CC2COCCN2c2nc(-c3cccc4[nH]ccc34)ncc21 (centres unmarked) [Example 43, 2-(2-(1H-indol-4-yl)-6a,7,9,10-tetrahydro-[1,4]oxazino[3,4-h]pteridin-5(6H)-yl)-N,N-dimethylacetamide] | 398 nM |
| CC(C)N(C)C(=O)CN1CC2COCCN2c2nc(-c3cccc4[nH]ccc34)ncc21 (centres unmarked) [Example 44, 2-(2-(1H-indol-4-yl)-6a,7,9,10-tetrahydro-[1,4]oxazino[3,4-h]pteridin-5(6H)-yl)-N-isopropyl-N-methylacetamide] | 316 nM |
| N#Cc1ccccc1CN1CC2COCCN2c2nc(-c3cccc4[nH]ccc34)ncc21 (centres unmarked) [Example 45, 2-((2-(1H-indol-4-yl)-6a,7,9,10-tetrahydro-[1,4]oxazino[3,4-h]pteridin-5(6H)-yl)methyl)benzonitrile] | 251 nM |
| N#Cc1ccc(F)cc1CN1CC2COCCN2c2nc(-c3cccc4[nH]ccc34)ncc21 (centres unmarked) [Example 46, 2-((2-(1H-indol-4-yl)-6a,7,9,10-tetrahydro-[1,4]oxazino[3,4-h]pteridin-5(6H)-yl)methyl)-4-fluorobenzonitrile] | 316 nM |
| COc1cc(C#N)ccc1CN1CC2COCCN2c2nc(-c3cccc4[nH]ccc34)ncc21 (centres unmarked) [Example 47, 4-((2-(1H-indol-4-yl)-6a,7,9,10-tetrahydro-[1,4]oxazino[3,4-h]pteridin-5(6H)-yl)methyl)-3-methoxybenzonitrile] | 158 nM |
| O=C(Cc1ccccc1)N1CC2COCCN2c2nc(-c3cccc4[nH]ccc34)ncc21 (centres unmarked) [Example 48, 1-(2-(1H-indol-4-yl)-6a,7,9,10-tetrahydro-[1,4]oxazino[3,4-h]pteridin-5(6H)-yl)-2-phenylethanone] | 251 nM |
| O=C(Cc1cccs1)N1CC2COCCN2c2nc(-c3cccc4[nH]ccc34)ncc21 (centres unmarked) [Example 49, 1-(2-(1H-indol-4-yl)-6a,7,9,10-tetrahydro-[1,4]oxazino[3,4-h]pteridin-5(6H)-yl)-2-(thiophen-2-yl)ethanone] | 200 nM |
| COc1cccc(CC(=O)N2CC3COCCN3c3nc(-c4cccc5[nH]ccc45)ncc32)c1 (centres unmarked) [Example 50, 1-(2-(1H-indol-4-yl)-6a,7,9,10-tetrahydro-[1,4]oxazino[3,4-h]pteridin-5(6H)-yl)-2-(3-methoxyphenyl)ethanone] | 316 nM |
| O=C(Cc1ccsc1)N1CC2COCCN2c2nc(-c3cccc4[nH]ccc34)ncc21 (centres unmarked) [Example 51, 1-(2-(1H-indol-4-yl)-6a,7,9,10-tetrahydro-[1,4]oxazino[3,4-h]pteridin-5(6H)-yl)-2-(thiophen-3-yl)ethanone] | 251 nM |
| O=C(Cc1coc2ccccc12)N1CC2COCCN2c2nc(-c3cccc4[nH]ccc34)ncc21 (centres unmarked) [Example 52, 1-(2-(1H-indol-4-yl)-6a,7,9,10-tetrahydro-[1,4]oxazino[3,4-h]pteridin-5(6H)-yl)-2-(benzofuran-3-yl)ethanone] | 398 nM |
| O=C(OCc1ccccc1)N1CC2COCCN2c2nc(-c3cccc4[nH]ccc34)ncc21 (centres unmarked) [Example 53, benzyl 2-(1H-indol-4-yl)-6a,7,9,10-tetrahydro-[1,4]oxazino[3,4-h]pteridine-5(6H)-carboxylate] | 251 nM |
| O=C(Cc1c(F)cccc1F)N1CC2COCCN2c2nc(-c3cccc4[nH]ccc34)ncc21 (centres unmarked) [Example 54] | 501 nM |
| CC(=O)N1CC2COCCN2c2nc(-n3c(C(F)F)nc4ccccc43)ncc21 (centres unmarked) [Example 55, 1-(2-(2-(difluoromethyl)-1H-benzo[c]imidazol-1-yl)-6a,7,9,10-tetrahydro-[1,4]oxazino[3,4-h]pteridin-5(6H)-yl)ethanone] | 631 nM |
| CC(=O)N1CC2COCCN2c2nc(-n3c(C)nc4ccccc43)ncc21 (centres unmarked) [Example 56, 1-(2-(2-methyl-1H-benzo[d]imidazol-1-yl)-6a,7,9,10-tetrahydro-[1,4]oxazino[3,4-h]pteridin-5(6H)-yl)ethanone] | 3160 nM |
| CC(C)(C)OC(=O)N[C@H]1CC[C@H](CN2CC3COCCN3c3nc(-c4cccc5[nH]ccc45)ncc32)CC1 (some centres unmarked) [Example 57, tert-butyl ((1r,4r)-4-((2-(1H-indol-4-yl)-6a,7,9,10-tetrahydro-[1,4]oxazino[3,4-h]pteridin-5(6H)-yl)methyl)cyclohexyl)carbamate] | 794 nM |
| N[C@H]1CC[C@H](CN2CC3COCCN3c3nc(-c4cccc5[nH]ccc45)ncc32)CC1 (some centres unmarked) [Example 58, (1r,4r)-4-((2-(1H-indol-4-yl)-6a,7,9,10-tetrahydro-[1,4]oxazino[3,4-h]pteridin-5(6H)-yl)methyl)cyclohexanamine] | 501 nM |
| N#Cc1ccc(F)c(CN2CC3COCCN3c3nc(-c4cccc5[nH]ccc45)ncc32)c1 (centres unmarked) [Example 60, 3-((2-(1H-indol-4-yl)-6a,7,9,10-tetrahydro-[1,4]oxazino[3,4-h]pteridin-5(6H)-yl)methyl)-4-fluorobenzonitrile] | 31.6 nM |
